Laboratory results reported in ChEMBL document CHEMBL1132634, “Bound structures of novel P3-P1' beta-strand mimetic inhibitors of thrombin” (J Med Chem, 1999).
pKi: −log10 of the molar value.

Columns and labels:
Prothrombin [1] = target: T1, Prothrombin (Homo sapiens, UniProt P00734)
Description: Binding rate constant towards thrombin was determined

Prothrombin [2] = target: T1, Prothrombin; assay: Binding affinity towards thrombin was determined

| pKi (Prothrombin [2]) | SMILES | k on (Prothrombin [1]) [M⁻¹ s⁻¹] |
| --- | --- | --- |
| – | N=C(N)NCCC[C@H](NC(=O)[C@@H]1CCN2CC[C@@](N)(Cc3ccccc3)C(=O)N12)C(=O)C(=O)NCCc1ccccc1 | 640000 |
| – | NCCCC[C@H](NC(=O)[C@@H]1CCN2CC[C@@](N)(Cc3ccccc3)C(=O)N12)C(=O)C(=O)NC1CCCCC1 | 1e+06 |
| 9.19 | N=C(N)NCCC[C@H](NC(=O)[C@@H]1CC[C@@H]2CC[C@@](N)(Cc3ccccc3)C(=O)N21)C(=O)c1nc2ccccc2s1 | – |
